From US20210128566A1, “NOVEL FUNCTIONALIZED PURINE-2,6-DIONES AND THEIR USE IN MEDICINE” (THOMAS HELLEDAYS STIFTELSE FÖR MEDICINSK FORSKNING, priority 2017, published 2021)

target: recombinant human NUDT5 (Homo sapiens, UniProt Q9UKK9); assay: NUDT5 inhibitor activity by malachite green reporter assay; assay type: biochemical; conditions: Table 3; 6 nM NUDT5, 50 μM ADP-Ribose, 15 minutes at room temperature
Method in brief: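 Coupled ADP-ribose hydrolysis in 10 mM Tris-acetate pH 8.0, 40 mM NaCl, 10 mM Mg acetate, 0.005% Tween-20, 1 mM DTT: 6 nM NUDT5, 50 μM ADP-Ribose, 10 U/ml alkaline phosphatase, 15 min at room temperature. Pi read by malachite green at 630 nm; compounds 100 μM–1.7 nM, 3-fold; IC50 by curve fit.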

| Structure (SMILES) | IC50 [nM] |
| --- | --- |
| Cn1c(=O)c2c(nc(N3CCCNCC3)n2Cc2nnc(-c3ccc(Cl)c(Cl)c3)o2)n(C)c1=O [Example 27, 8-(1,4-diazepan-1-yl)-7-{[5-(3,4-dichlorophenyl)-1,3,4-oxadiazol-2-yl]methyl}-1,3-dimethyl-2,3,6,7-tetrahydro-1H-purine-2,6-dione] | 19.3 |
| Cn1c(=O)c2c(nc(N3CCCCCC3)n2Cc2nnc(-c3ccc(Cl)c(Cl)c3)o2)n(C)c1=O [Example 21, 8-(azepan-1-yl)-7-{[5-(3,4-dichlorophenyl)-1,3,4-oxadiazol-2-yl]methyl}-1,3-dimethyl-2,3,6,7-tetrahydro-1H-purine-2,6-dione] | 50.3 |
| Cn1c(=O)c2c(nc(N3CCCC(F)C3)n2Cc2nnc(-c3ccc(Cl)c(Cl)c3)o2)n(C)c1=O (stereo not drawn) [Example 41, 7-{[5-(3,4-dichlorophenyl)-1,3,4-oxadiazol-2-yl]methyl}-8-(3-fluoropiperidin-1-yl)-1,3-dimethyl-2,3,6,7-tetrahydro-1H-purine-2,6-dione] | 24.2 |
| CCS(=O)(=O)c1nc2c(c(=O)n(C)c(=O)n2C)n1Cc1nnc(-c2ccc(Cl)c(Cl)c2)o1 [Example 23, 7-{[5-(3,4-dichlorophenyl)-1,3,4-oxadiazol-2-yl]methyl}-8-(ethanesulfonyl)-1,3-dimethyl-2,3,6,7-tetrahydro-1H-purine-2,6-dione] | 24.4 |
| CN(C)c1nc2c(c(=O)n(C)c(=O)n2C)n1Cc1nnc(-c2ccc(Cl)c(Cl)c2)o1 [Example 3, 7-{[5-(3,4-dichlorophenyl)-1,3,4-oxadiazol-2-yl]methyl}-8-(dimethylamino)-1,3-dimethyl-2,3,6,7-tetrahydro-1H-purine-2,6-dione] | 111 |
| Cc1cccc(-c2nnc(Cn3c(N4CCN(C5CCCCC5)CC4)nc4c3c(=O)n(C)c(=O)n4C)o2)c1 [Example 59, 8-(4-cyclohexylpiperazin-1-yl)-1,3-dimethyl-7-{[5-(3-methylphenyl)-1,3,4-oxadiazol-2-yl]methyl}-2,3,6,7-tetrahydro-1H-purine-2,6-dione] | > 1000 |
| Cn1c(=O)c2c(nc(Cc3ccccc3)n2Cc2nnc(-c3ccc(Cl)c(Cl)c3)o2)n(C)c1=O [Example 63, 8-benzyl-7-{[5-(3,4-dichlorophenyl)-1,3,4-oxadiazol-2-yl]methyl}-1,3-dimethyl-2,3,6,7-tetrahydro-1H-purine-2,6-dione] | > 1000 |
| Cn1c(=O)c2c(nc(N3CCC(CN)CC3)n2Cc2nnc(-c3ccc(Cl)c(Cl)c3)o2)n(C)c1=O [Example 38, 8-[4-(aminomethyl)piperidin-1-yl]-7-{[5-(3,4-dichlorophenyl)-1,3,4-oxadiazol-2-yl)methyl}-1,3-dimethyl-2,3,6,7-tetrahydro-1H-purine-2,6-dione] | 18.5 |
| C[C@@H]1CN(c2nc3c(c(=O)n(C)c(=O)n3C)n2Cc2nnc(-c3ccc(Cl)c(Cl)c3)o2)CCN1 [Example 47, 7-{[5-(3,4-dichlorophenyl)-1,3,4-oxadiazol-2-yl]methyl}-1,3-dimethyl-8-[(3R)-3-methylpiperazin-1-yl]-2,3,6,7-tetrahydro-1H-purine-2,6-dione] | 11.9 |
| Cn1c(=O)c2c(nc(N3CCC4(CC3)NC(=O)NC4=O)n2Cc2nnc(-c3ccc(Cl)c(Cl)c3)o2)n(C)c1=O [Example 22, 8-(7-{[5-(3,4-dichlorophenyl)-1,3,4-oxadiazol-2-yl]methyl}-1,3-dimethyl-2,6-dioxo-2,3,6,7-tetrahydro-1H-purin-8-yl)-1,3,8-triazaspiro[4.5]decane-2,4-dione] | 35.1 |
| COc1nc2c(c(=O)n(C)c(=O)n2C)n1Cc1nnc(-c2ccc(Cl)c(Cl)c2)o1 [Example 1, 7-{[5-(3,4-dichlorophenyl)-1,3,4-oxadiazol-2-yl]methyl}-8-methoxy-1,3-dimethyl-2,3,6,7-tetrahydro-1H-purine-2,6-dione] | 29.1 |
| Cn1c(=O)c2c(nc(N3CCCCC3)n2Cc2nnc(-c3ccc(Cl)c(Cl)c3)o2)n(C)c1=O [Example 9, 7-{[5-(3,4-dichlorophenyl)-1,3,4-oxadiazol-2-yl]methyl}-1,3-dimethyl-8-(piperidin-1-yl)-2,3,6,7-tetrahydro-1H-purine-2,6-dione] | 15 |

same assay, conditions: Table 4; 6 nM NUDT5, 50 μM ADP-Ribose, 15 minutes at room temperature

| Structure (SMILES) | IC50 [nM] |
| --- | --- |
| Cn1c(=O)c2c(nc(Cl)n2Cc2nnc(-c3ccc(C#N)cc3)o2)n(C)c1=O [Example 93, 4-{5-[(8-chloro-1,3-dimethyl-2,6-dioxo-2,3,6,7-tetrahydro-1H-purin-7-yl)methyl]-1,3,4-oxadiazol-2-yl}benzonitrile] | 918 |
| Cn1c(=O)c2c(nc(N3CCNCC3)n2Cc2nnc(-c3ccc4[nH]ncc4c3)o2)n(C)c1=O [Example 124, 7-{[5-(1H-indazol-5-yl)-1,3,4-oxadiazol-2-yl]methyl}-1,3-dimethyl-8-(piperazin-1-yl)-2,3,6,7-tetrahydro-1H-purine-2,6-dione] | 309 |
| Cc1cc(-c2nnc(Cn3c(N4CCNCC4)nc4c3c(=O)n(C)c(=O)n4C)o2)ccc1Cl [Example 116, 7-{[5-(4-chloro-3-methylphenyl)-1,3,4-oxadiazol-2-yl]methyl}-1,3-dimethyl-8-(piperazin-1-yl)-2,3,6,7-tetrahydro-1H-purine-2,6-dione] | 21.6 |
| Cn1c(=O)c2c(nc(N3CCNCC3)n2Cc2nnc(-c3ccc4cc[nH]c4c3)o2)n(C)c1=O [Example 120, 7-{[5-(1H-indol-6-yl)-1,3,4-oxadiazol-2-yl]methyl}-1,3-dimethyl-8-(piperazin-1-yl)-2,3,6,7-tetrahydro-1H-purine-2,6-dione] | 80.5 |
| Cn1c(=O)c2c(nc(N3CCNCC3)n2Cc2nnc(-c3cccnc3)o2)n(C)c1=O [Example 113, 1,3-dimethyl-8-(piperazin-1-yl)-7-{[5-(pyridin-3-yl)-1,3,4-oxadiazol-2-yl]methyl}-2,3,6,7-tetrahydro-1H-purine-2,6-dione] | 1690 |
| COc1cc(-c2nnc(Cn3c(SCCN)nc4c3c(=O)n(C)c(=O)n4C)o2)ccc1C [Example 142, 8-[(2-aminoethyl)sulfanyl]-7-{[5-(3-methoxy-4-methylphenyl)-1,3,4-oxadiazol-2-yl]methyl}-1,3-dimethyl-2,3,6,7-tetrahydro-1H-purine-2,6-dione] | 49.2 |
| Cn1c(=O)c2c(nc(Cl)n2Cc2nnc(-c3ccc([N+](=O)[O-])cc3)o2)n(C)c1=O [Example 96, 8-chloro-1,3-dimethyl-7-{[5-(4-nitrophenyl)-1,3,4-oxadiazol-2-yl]methyl}-2,3,6,7-tetrahydro-1H-purine-2,6-dione] | 1510 |
| COc1ccc(-c2cc(Cn3c(Cl)nc4c3c(=O)n(C)c(=O)n4C)on2)cc1 [Example 77, 8-chloro-7-{[3-(4-methoxyphenyl)-1,2-oxazol-5-yl]methyl}-1,3-dimethyl-2,3,6,7-tetrahydro-1H-purine-2,6-dione] | 19700 |
| COc1cc(-c2nnc(Cn3c(N4CCCNCC4)nc4c3c(=O)n(C)c(=O)n4C)o2)ccc1C [Example 131, 8-(1,4-diazepan-1-yl)-7-{[5-(3-methoxy-4-methylphenyl)-1,3,4-oxadiazol-2-yl]methyl}-1,3-dimethyl-2,3,6,7-tetrahydro-1H-purine-2,6-dione] | 60.7 |
| Cn1c(=O)c2c(nc(N)n2Cc2nnc(-c3ccc(Cl)c(Cl)c3)o2)n(C)c1=O [Example 87, 8-amino-7-{[5-(3,4-dichlorophenyl)-1,3,4-oxadiazol-2-yl]methyl}-1,3-dimethyl-2,3,6,7-tetrahydro-1H-purine-2,6-dione] | 16.5 |
| Cn1c(=O)c2c(nc(Cl)n2Cc2nnc(-c3ccc(CS(C)(=O)=O)cc3)o2)n(C)c1=O [Example 103, 8-chloro-7-({5-[4-(methanesulfonylmethyl)phenyl]-1,3,4-oxadiazol-2-yl}methyl)-1,3-dimethyl-2,3,6,7-tetrahydro-1H-purine-2,6-dione] | 61600 |
| Cn1c(=O)c2c(nc(N3CCNCC3)n2Cc2cnc(-c3ccc(Cl)cc3)s2)n(C)c1=O [Example 76, 7-{[2-(4-chlorophenyl)-1,3-thiazol-5-yl]methyl}-1,3-dimethyl-8-(piperazin-1-yl)-2,3,6,7-tetrahydro-1H-purine-2,6-dione] | 376 |
| Cn1c(=O)c2c(nc(Cl)n2Cc2nnc(-c3cccc(F)c3)o2)n(C)c1=O [Example 91, 8-chloro-7-{[5-(3-fluorophenyl)-1,3,4-oxadiazol-2-yl]methyl}-1,3-dimethyl-2,3,6,7-tetrahydro-1H-purine-2,6-dione] | 2150 |
| COc1cc(-c2nnc(Cn3c(N4CCC(C(N)=O)CC4)nc4c3c(=O)n(C)c(=O)n4C)o2)ccc1C [Example 138, 1-(7-{[5-(3-methoxy-4-methylphenyl)-1,3,4-oxadiazol-2-yl]methyl}-1,3-dimethyl-2,6-dioxo-2,3,6,7-tetrahydro-1H-purin-8-yl)piperidine-4-carboxamide] | 33.4 |
| COc1cc(-c2nnc(Cn3c(N4CCNC(C(F)(F)F)C4)nc4c3c(=O)n(C)c(=O)n4C)o2)ccc1C (stereo not drawn) [Example 129, 7-{[5-(3-methoxy-4-methylphenyl)-1,3,4-oxadiazol-2-yl]methyl}-1,3-dimethyl-8-[3-(trifluoromethyl)piperazin-1-yl]-2,3,6,7-tetrahydro-1H-purine-2,6-dione] | 911 |
| Cn1c(=O)c2c(nc(N3CCNC(C(F)(F)F)C3)n2Cc2nnc(-c3ccc(Cl)c(Cl)c3)o2)n(C)c1=O (stereo not drawn) [Example 134, 7-{[5-(3,4-dichlorophenyl)-1,3,4-oxadiazol-2-yl]methyl}-1,3-dimethyl-8-[3-(trifluoromethyl)piperazin-1-yl]-2,3,6,7-tetrahydro-1H-purine-2,6-dione] | 140 |
| COc1cc(-c2nnc(Cn3c(NCCNS(C)(=O)=O)nc4c3c(=O)n(C)c(=O)n4C)o2)ccc1C [Example 133, N-{2-[(7-{[5-(3-methoxy-4-methylphenyl)-1,3,4-oxadiazol-2-yl]methyl}-1,3-dimethyl-2,6-dioxo-2,3,6,7-tetrahydro-1H-purin-8-yl)amino]ethyl}methanesulfonamide] | 352 |
| Cn1c(=O)c2c(nc(N3CCNCC3)n2Cc2nnc(-c3ccc(C#N)cc3)o2)n(C)c1=O [Example 112] | 255 |
